Results from patent US10035760B2, “Inhibitors of human immunodeficiency virus replication” (priority 2013, dated 2018).
Where two headings read alike, the source gives them in different places.

System: recombinant NL4-3 virus (Renilla luciferase) in MT-2 cells
Test: HIV cell culture assay (antiviral activity, luciferase readout in infected MT-2 cells)
Format: cell-based
Procedure: HIV cell culture assay—MT-2 cells, 293T cells and the proviral DNA clone of NL4-3 virus were obtained from the NIH AIDS Research and Reference Reagent Program. MT-2 cells were propagated in RPMI 1640 media supplemented with 10% heat inactivated fetal bovine serum (FBS), 100 ug/ml penicillin G and up to 100 units/ml streptomycin. The 293T cells were propagated in DMEM media supplemented with 10% heat inactivated FBS, 100 ug/ml penicillin G and 100 ug/ml streptomycin. A recombinant NL4-3 proviral clone, in which a section of the nef gene was replaced with the Renilla luciferase gene, was used to make the reference virus used in these studies. The recombinant virus was prepared through transfection of the recombinant NL4-3 proviral clone into 293T cells using Transit-293 Transfection Reagent from Mirus Bio LLC (Madison, Wis.). Supernatent was harvested after 2-3 days after transfection, and the amount of virus present was titered in MT-2 cells using luciferase enzyme activity as a marker. Luciferase activity was quantitated using the EnduRen Live Cell Substrate from Promega (Madison, Wis.). Antiviral activities of compounds toward the recombinant virus were quantified by measuring luciferase activity in MT-2 cells infected for 4-5 days with the recombinant virus in the presence of serial dilutions of the compound.
The 50% effective concentration (EC50) was calculated by using the exponential form of the median effect equation where (Fa)=1/[1+(ED50/drug conc.)^m](Johnson V A, Byington R T. Infectivity Assay. In Techniques in HIV Research. ed. Aldovini A, Walker B D. 71-76. New York: Stockton Press. 1990).

[1] = Renilla, NL43, read-out: Activity, antiviral activity class, recombinant NL4-3 Renilla luciferase virus in MT-2 cells
[2] = Renilla, NL43, recombinant NL4-3 Renilla luciferase virus in MT-2 cells

| Compound | EC50 [1] | EC50 [2] | EC50 (read-out: Activity, antiviral activity class, recombinant NL4-3 Renilla luciferase virus in MT-2 cells) |
| --- | --- | --- | --- |
| CN(C(=O)[C@H](Cc1ccccc1)NC(=O)NS(=O)(=O)C1CC1)c1ccc2c(c1)OCO2 [Example 42, (S)—N-(benzo[d][1,3]dioxol-5-yl)-2-(3-(cyclopropylsulfonyl)ureido)-N-methyl-3-phenylpropanamide] | 100 to 1000 nM | 480 nM |  |
| CC(C)S(=O)(=O)NC(=O)N[C@@H](Cc1ccccc1)C(=O)N(C)c1ccc2c(c1)OCO2 [Example 43, (S)—N-(benzo[d][1,3]dioxol-5-yl)-2-(3-(isopropylsulfonyl)ureido)-N-methyl-3-phenylpropanamide] | 100 to 1000 nM |  |  |
| CN(C(=O)[C@H](Cc1ccccc1)NC(=O)NS(C)(=O)=O)c1ccc2c(c1)OCO2 [Example 44, (S)—N-(benzo[d][1,3]dioxol-5-yl)-N-methyl-2-(3-(methylsulfonyl)ureido)-3-phenylpropanamide] | 1000 to 10000 nM | 2480 nM |  |
| CC(C)CS(=O)(=O)NC(=O)N[C@@H](Cc1ccccc1)C(=O)N(C)c1ccc2c(c1)OCO2 [Example 45, (S)—N-(benzo[d][1,3]dioxol-5-yl)-2-(3-(isobutylsulfonyl)ureido)-N-methyl-3-phenylpropanamide] | 100 to 1000 nM |  |  |
| CN(C(=O)[C@H](Cc1ccccc1)NC(=O)NS(=O)(=O)C(C)(C)C)c1ccc2c(c1)OCO2 [Example 46, (S)—N-(benzo[d][1,3]dioxol-5-yl)-2-(3-(tert-butylsulfonyl)ureido)-N-methyl-3-phenylpropanamide] | 1000 to 10000 nM |  |  |
| CN(C(=O)[C@H](Cc1ccccc1)NC(=O)N(C)S(=O)(=O)c1ccccc1Br)c1ccc2c(c1)OCO2 [Example 47, (S)—N-(benzo[d][1,3]dioxol-5-yl)-2-(3-((2-bromophenyl)sulfonyl)-3-methylureido)-N-methyl-3-phenylpropanamid] | 1000 to 10000 nM |  |  |
| CN(C(=O)[C@H](Cc1ccccc1)NC(=O)NS(=O)(=O)c1ccccc1-c1cnn(C)c1)c1ccc2c(c1)OCO2 [Example 49, (S)—N-(benzo[d][1,3]dioxol-5-yl)-N-methyl-2-(3-((2-(1-methyl-1H-pyrazol-4-yl)phenyl)sulfonyl)ureido)-3-phenylpropanamide] |  | 1340 nM | 1000 to 10000 nM |
| CN(C(=O)[C@H](Cc1ccccc1)NC(=O)NS(=O)(=O)c1ccccc1-c1ccoc1)c1ccc2c(c1)OCO2 [Example 50, (S)—N-(benzo[d][1,3]dioxol-5-yl)-2-(3-((2-(furan-3-yl)phenyl)sulfonyl)ureido)-N-methyl-3-phenylpropanamide] | 100 to 1000 nM |  |  |
| Cc1ccccc1S(=O)(=O)NC(=O)N[C@@H](Cc1ccc(Cl)cc1)C(=O)N(C)c1ccc2c(c1)OCO2 [Example 51, (S)—N-(benzo[d][1,3]dioxol-5-yl)-3-(4-chlorophenyl)-N-methyl-2-(3-(o-tolylsulfonyl)ureido)propanamide] | 100 to 1000 nM | 490 nM |  |
| CCOc1ccc(C[C@H](NC(=O)NS(=O)(=O)c2ccccc2C)C(=O)N(C)c2ccc3c(c2)OCO3)cc1 [Example 52, (S)—N-(benzo[d][1,3]dioxol-5-yl)-3-(4-ethoxyphenyl)-N-methyl-2-(3-(o-tolylsulfonyl)ureido)propanamide] | 1000 to 10000 nM | 6230 nM |  |
| Cc1ccccc1C[C@H](NC(=O)NS(=O)(=O)c1ccccc1C)C(=O)N(C)c1ccc2c(c1)OCO2 [Example 53, (S)—N-(benzo[d][1,3]dioxol-5-yl)-N-methyl-3-(o-tolyl)-2-(3-(o-tolylsulfonyl)ureido)propanamide] | 100 to 1000 nM |  |  |
| Cc1ccccc1S(=O)(=O)NC(=O)N[C@@H](Cc1ccccc1Cl)C(=O)N(C)c1ccc2c(c1)OCO2 [Example 54, (S)—N-(benzo[d][1,3]dioxol-5-yl)-3-(2-chlorophenyl)-N-methyl-2-(3-(o-tolylsulfonyl)ureido)propanamide] | 100 to 1000 nM |  |  |
| Cc1ccccc1S(=O)(=O)NC(=O)N[C@@H](Cc1cccc(Cl)c1)C(=O)N(C)c1ccc2c(c1)OCO2 [Example 55, (S)—N-(benzo[d][1,3]dioxol-5-yl)-3-(3-chlorophenyl)-N-methyl-2-(3-(o-tolylsulfonyl)ureido)propanamide] | 100 to 1000 nM |  |  |
| COc1ccc(C[C@H](NC(=O)NS(=O)(=O)c2ccccc2C)C(=O)N(C)c2ccc3c(c2)OCO3)cc1 [Example 56, (S)—N-(benzo[d][1,3]dioxol-5-yl)-3-(4-methoxyphenyl)-N-methyl-2-(3-(o-tolylsulfonyl)ureido)propanamide] | 1000 to 10000 nM |  |  |
| Cc1ccccc1S(=O)(=O)NC(=O)N[C@@H](Cc1ccc(Br)cc1)C(=O)N(C)c1ccc2c(c1)OCO2 [Example 57, (S)—N-(benzo[d][1,3]dioxol-5-yl)-3-(4-bromophenyl)-N-methyl-2-(3-(o-tolylsulfonyl)ureido)propanamide] | 1000 to 10000 nM |  |  |
| C=CCOc1ccc(C[C@H](NC(=O)NS(=O)(=O)c2ccccc2C)C(=O)N(C)c2ccc3c(c2)OCO3)cc1 [Example 58, (S)-3-(4-(allyloxy)phenyl)-N-(benzo[d][1,3]dioxol-5-yl)-N-methyl-2-(3-(o-tolylsulfonyl)ureido)propanamide] | 1000 to 10000 nM |  |  |
| Cc1ccccc1S(=O)(=O)NC(=O)N[C@@H](Cc1ccc(Cl)c(Cl)c1)C(=O)N(C)c1ccc2c(c1)OCO2 [Example 59, (S)—N-(benzo[d][1,3]dioxol-5-yl)-3-(3,4-dichlorophenyl)-N-methyl-2-(3-(o-tolylsulfonyl)ureido)propanamide] | 1000 to 10000 nM | 1040 nM |  |
| Cc1ccccc1S(=O)(=O)NC(=O)N[C@@H](Cc1ccc(F)c(F)c1)C(=O)N(C)c1ccc2c(c1)OCO2 [Example 60, (S)—N-(benzo[d][1,3]dioxol-5-yl)-3-(3,4-difluorophenyl)-N-methyl-2-(3-(o-tolylsulfonyl)ureido)propanamide] | 100 to 1000 nM | 230 nM |  |
| Cc1ccccc1S(=O)(=O)NC(=O)N[C@@H](Cc1ccc(C(F)(F)F)cc1)C(=O)N(C)c1ccc2c(c1)OCO2 [Example 61, (S)—N-(benzo[d][1,3]dioxol-5-yl)-N-methyl-2-(3-(o-tolylsulfonyl)ureido)-3-(4-(trifluoromethyl)phenyl)propanamide] | 1000 to 10000 nM | 6620 nM |  |
| Cc1ccccc1S(=O)(=O)NC(=O)N[C@@H](Cc1cccc(C#N)c1)C(=O)N(C)c1ccc2c(c1)OCO2 [Example 62, (S)—N-(benzo[d][1,3]dioxol-5-yl)-3-(3-cyanophenyl)-N-methyl-2-(3-(o-tolylsulfonyl)ureido)propanamide] | 1000 to 10000 nM |  |  |
| Cc1ccccc1S(=O)(=O)NC(=O)N[C@@H](Cc1ccc(C#N)cc1)C(=O)N(C)c1ccc2c(c1)OCO2 [Example 63, (S)—N-(benzo[d][1,3]dioxol-5-yl)-3-(4-cyanophenyl)-N-methyl-2-(3-(o-tolylsulfonyl)ureido)propanamide] | 1000 to 10000 nM |  |  |
| COC(=O)c1cccc(C[C@H](NC(=O)NS(=O)(=O)c2ccccc2C)C(=O)N(C)c2ccc3c(c2)OCO3)c1 [Example 64, (S)-methyl 3-(3-(benzo[d][1,3]dioxol-5-yl(methyl)amino)-3-oxo-2-(3-(o-tolylsulfonyl)ureido)propyl)benzoate] | 1000 to 10000 nM |  |  |
| Cc1ccccc1S(=O)(=O)NC(=O)N[C@H](C(=O)N(C)c1ccc2c(c1)OCO2)[C@@H](C)c1ccccc1 [Example 65, (2S,3S)—N-(benzo[d][1,3]dioxol-5-yl)-N-methyl-3-phenyl-2-(3-(o-tolylsulfonyl)ureido)butanamide] | 1000 to 10000 nM | 6830 nM |  |
